Source: patent publication US20150265608A1, “Compounds for Treating Rac-GTPase Mediated Disorder” (Children's Medical Center Corporation, priority 2012, published 2015)

Columns and labels:
leukemia cell lines = experiment: MTS assay of inhibition of proliferation; assay type: cell-based
Procedure: The 100 compounds selected from the initial in silico screen were assayed for inhibition of proliferation in two leukemia cell lines, SEM and REH, by MTS ((3-(4,5-dimethylthiazol-2-yl)-5-(3-carboxymethoxyphenyl)-2-(4-sulfophenyl)-2H-tetrazolium)) assay. The cells for the MTS assay were spun down and re-suspended. The cell suspension was then divided and the compound to be tested added in desired concentrations and subsequently plated. Following an incubation period, MTS reagent (Promega CellTiter 96® Aqueous Non-Radioactive Cell Proliferation Assay) was added and allowed to incubate. The absorbance is subsequently measured at 490 nm using a plate reader.
The five lead compounds, i.e. Compounds 1-5, were further analyzed for their effect on cell proliferation at various doses on different leukemia cells. First, each the five compounds was screened in nine leukemia cell lines: REH, SEM, MV411, RS411, Jurkat, Raji, Nomo-1, Naim6, and ML2 at a concentration of 20 μM. Four of the lead compounds, Compounds 2, 3, 4 and 5 were further tested in SEM and MV411 cells at a range of concentrations for inhibition of proliferation. In order to quantitate the percentage inhibition of cell proliferation, MTS analysis was completed as described in Example 2 above.

[1] = system: normal bone marrow hematopoietic progenitor cells; experiment: clonogenic assay in methylcellulose (colony formation) for toxicity; assay type: cell-based, mouse; conditions: compared to the other compounds
Procedure: Four of the lead compounds (Compounds 2, 3, 4, and 5) were screened for toxicity in normal bone marrow hematopoietic progenitor cells. Average colonies formed from normal BL-6 mouse bone marrow were counted following exposure of the four lead compounds individually at concentrations of 5 μM, 20 μM or 80 μM in methylcellulose. A clonogenic assay in methylcellulose was performed to assess colony formation. MethoCult base (StemCell Tech #03134) was mixed with the following reagents: fetal bovine serum, bovine serum albumin, IL-3, mSCF, EPO, beta-mercaptoethanol, penicillin, streptomycin, L-glutamine, and IMDM, and added to normal bone marrow cells. The cells in suspension are then plated and resulting colonies counted after 7 days.

Rac1-GTPase = target: T1, Rac1-GTPase (Homo sapiens, UniProt P63000); experiment: pull down assay for RAC-GTP with Western blot; assay type: cell-based; conditions: exposure of the cells for 5 and 60 minutes, FIG. 9b
T1 construct: The assay initially required treatment of cells followed by pull down and analysis with Western blot; endogenous in cells; host or cells: Leukemia cells
Procedure: To determine which of these compounds should be further pursued, a biochemical pull down assay was performed to confirm specific inhibition of Rac activation indicated by disruption of the interaction between Rac and […]. The assay initially required treatment of cells followed by pull down and analysis with Western blot. The cells were first starved in serum free media for 2 hours. They were then re-suspended in serum-containing medium and inhibitors added at desired concentration. Following incubation for the desired length of time, the cells were pelleted and lysed with Magnesium Lysis Buffer (Millipore Mg^2+lysis/wash buffer). The Rac protein and any bound proteins were then collected with Pak Beads (Millipore Rac/cdc42 Assay Reagent (PAK-1 PBD, agarose). Bound protein was subsequently removed with lysis buffer and subject to Western Blot analysis.
Additional analysis of Compound 5 was performed to assess its effects on apoptosis, cell death and RAC-GTPase interaction. FIG. 9a indicates the effect of OSSK—373747 on the apoptotic pathway in SEM cells. Apoptotic cells and dead cells following incubation of SEM cells with 20 and 80 μM of Compound 5 were analyzed using Annexin V staining.

[2] = in vivo tolerability in NSG mice xenografted with MV411 cells
Procedure: In vivo tolerability of Compound 7 was evaluated in NSG mice xenografted with MV411 cells stably expressing luciferase via constitutive promoter. Compound 7 was prepared in a solution of 10% NMP, 5% CremaphorEL, 30% PEG200, and 55% D5W and administered PO at a dose of 50, 100, 250, or 500 mg/kg once each day for a period of 7 days. Five mice were utilized for each test group.
Body weight was recorded 3 times/week upon dosing. On treatment day 6, the mice were imaged via bioluminescence imaging to ensure the presence of the xenografted MV411 leukemia cells. Following the final dose, dose 7, at least 100 μL of blood was drawn via submandibular bleed for plasma collection. Eight hours following the last dose, cardiac puncture blood draw was performed for plasma collection.

## O=C(CSc1nc2ccccc2n1Cc1ccccc1)N/N=C/c1ccccc1O [Compound 5]
Leukemia cell lines; summary of prior experiments, compared to the other compounds
  efficacy (inhibition of leukemia cell proliferation): strong efficacy
[1]; 20 μM or 80 μM, FIG. 8
  toxicity to the normal cells (average colonies from normal mouse bone marrow): least toxicity
[1]; summary statement
  toxicity to normal bone marrow cells: low toxicity
Rac1-GTPase
  GTPase and Rac interaction: decrease in GTPase and Rac interaction

## Cc1nn(Cc2ccc(F)cc2)c2sc(C(=O)Nc3ccc4c(c3)OCO4)cc12 [Compound 7]
[2]; PO 50, 100, 250 or 500 mg/kg once each day for 7 days
  in vivo tolerability: tolerable
[2]; PO 50, 100, 250 or 500 mg/kg over a 7 day period, FIG. 19b
  change in weight of animals: no progressive weight loss

## NNC(=O)CSc1nc2ccccc2n1Cc1ccccc1 [Compound 12]
Leukemia cell lines; in vitro
  inhibitory activity on leukemia cell lines: retains inhibitory activity
